Measured values taken from patent EP1220852B1, “SUBSTITUTED DIAZEPANS” (Novartis AG, priority 1999, dated 2001).

Experiments:
[1] = target: T1, LFA-1/ICAM-1 (Homo sapiens, UniProt P05107+P20701); assay: Cell free assay: binding of soluble human ICAM-1 to immobilized human LFA-1
T1 construct: endogenous in cells; host or cells: LFA-1: endogenous protein purified from JY cells (human lymphoblastoid B cell line); ICAM-1-Cκ fusion: made in house with the baculovirus system
Experimental: A. In vitro: Cell Free Assay
The assay measures the binding of soluble human ICAM-1 to immobilized human LFA-1. LFA-1 is purified from JY cells, a human lymphoblastoid B cell-line, by immunoaffinity chromatography as described by Dustin et a/. […] ICAM-1 mouse Cκ fusion protein (ICAM-1) is produced using the baculovirus system as described by Weitz-Schmidt et al. (Anal. Biochem.238,184-190, 1996).
Purified LFA-1 is diluted 1:20 in phosphate buffered saline (PBS) containing 2 mM MgCl2, pH 7.4 and coated onto microtitre plates (Nunc) at 37°C for 3h. Plates are blocked with 1% heat-treated BSA in PBS for 2 hours at 37°C followed by a washing step using PBS, 2mM MgCl2, 1% fetal calf serum, pH 7.4 (assay buffer). Compounds dissolved at 10 mM in DMSO are diluted in assay buffer and added to the plates. Biotinylated recombinant ICAM-1 in assay buffer (6 µg/ml) is added and allowed to bind at 37°C for one hour. After incubation, wells are washed with assay buffer. Streptavidin-peroxidase diluted 1:5000 in assay buffer is added and incubated for 45 min at 37 °C. Plates are then washed with assay buffer and 2.2'-azino-bis(3-ethylbenzothiazoiine-6 sulfonic acid) diammonium salt substrate solution is added to each well. The reaction is stopped after 20 min and bound ICAM-1 is determined by measuring the optical density at 405 nm in a microplate reader.

[2] = system: allergic contact dermatitis; assay: Allergic contact dermatitis (ACD), oxazolone-induced, pinnal weight; type: in vivo, female NMRI mice; conditions: pinnal weight 24 h after challenge
Experimental: ii) Allergic Contact Dermatitis (ACD)
Groups of 8 female NMRI mice are sensitized on the shaved abdomen with 50 µl of oxazolone (Sigma, 2% in acetone) and challenged with 10 µl of 0.2 or 2.0% oxazolone on the inner surface of the right ear 7 days later. The low concentration of oxazolone for induction of the elicitation phase is used for testing compounds on […] activity whereas the high concentration is applied for […] testing. The unchallenged left ears serve as normal controls and dermatitis is evaluated from the individual differences in pinnal weight, which is taken as a measure of increase in inflammatory swelling 24 h after the challenge. Dermatitis is evaluated in test- and for comparison in control groups. The test groups are treated with the test compounds either orally (twice, 2 h and immediately before challenge), subcutaneously (immediately before challenge) or topically (30 min after challenge at the site of elicitation of the ACD); the controls are treated similarly with the vehicles alone. […] The data of the test- and the vehicle-treated control groups are statistically analysed by ANOVA followed by Dunnet T-test (normal distribution or data) or by H and U-test, respectively. […]

T1 sequence (P20701 26-1170): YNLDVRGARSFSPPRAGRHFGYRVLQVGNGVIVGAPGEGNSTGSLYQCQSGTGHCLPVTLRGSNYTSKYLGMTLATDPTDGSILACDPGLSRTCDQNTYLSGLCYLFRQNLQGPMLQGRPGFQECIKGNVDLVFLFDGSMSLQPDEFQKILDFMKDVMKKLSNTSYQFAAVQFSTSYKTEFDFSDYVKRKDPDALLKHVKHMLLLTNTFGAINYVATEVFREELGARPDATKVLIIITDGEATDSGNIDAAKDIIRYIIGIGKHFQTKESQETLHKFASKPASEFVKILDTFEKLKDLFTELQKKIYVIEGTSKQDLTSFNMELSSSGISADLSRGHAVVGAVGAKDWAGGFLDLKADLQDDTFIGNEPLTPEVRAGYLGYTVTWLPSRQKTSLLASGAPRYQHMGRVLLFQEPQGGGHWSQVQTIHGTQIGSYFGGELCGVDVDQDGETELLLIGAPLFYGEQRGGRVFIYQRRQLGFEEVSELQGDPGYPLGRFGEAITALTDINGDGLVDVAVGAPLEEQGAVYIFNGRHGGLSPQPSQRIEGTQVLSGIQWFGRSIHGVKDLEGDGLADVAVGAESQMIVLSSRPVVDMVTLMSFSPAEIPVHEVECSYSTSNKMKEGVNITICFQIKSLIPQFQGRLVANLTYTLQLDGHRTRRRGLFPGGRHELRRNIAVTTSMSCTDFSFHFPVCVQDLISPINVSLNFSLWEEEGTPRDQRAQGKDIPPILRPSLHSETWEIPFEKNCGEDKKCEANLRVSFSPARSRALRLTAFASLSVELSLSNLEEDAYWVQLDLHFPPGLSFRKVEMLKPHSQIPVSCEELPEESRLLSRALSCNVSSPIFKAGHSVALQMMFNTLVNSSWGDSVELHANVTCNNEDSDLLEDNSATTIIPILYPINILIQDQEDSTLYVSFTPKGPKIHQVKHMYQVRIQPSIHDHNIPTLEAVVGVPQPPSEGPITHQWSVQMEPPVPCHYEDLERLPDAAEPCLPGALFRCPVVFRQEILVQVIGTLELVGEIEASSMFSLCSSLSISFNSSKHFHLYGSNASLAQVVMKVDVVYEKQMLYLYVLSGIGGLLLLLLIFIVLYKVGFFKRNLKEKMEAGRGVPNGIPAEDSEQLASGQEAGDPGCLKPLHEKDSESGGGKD
T1 sequence (P05107 23-769): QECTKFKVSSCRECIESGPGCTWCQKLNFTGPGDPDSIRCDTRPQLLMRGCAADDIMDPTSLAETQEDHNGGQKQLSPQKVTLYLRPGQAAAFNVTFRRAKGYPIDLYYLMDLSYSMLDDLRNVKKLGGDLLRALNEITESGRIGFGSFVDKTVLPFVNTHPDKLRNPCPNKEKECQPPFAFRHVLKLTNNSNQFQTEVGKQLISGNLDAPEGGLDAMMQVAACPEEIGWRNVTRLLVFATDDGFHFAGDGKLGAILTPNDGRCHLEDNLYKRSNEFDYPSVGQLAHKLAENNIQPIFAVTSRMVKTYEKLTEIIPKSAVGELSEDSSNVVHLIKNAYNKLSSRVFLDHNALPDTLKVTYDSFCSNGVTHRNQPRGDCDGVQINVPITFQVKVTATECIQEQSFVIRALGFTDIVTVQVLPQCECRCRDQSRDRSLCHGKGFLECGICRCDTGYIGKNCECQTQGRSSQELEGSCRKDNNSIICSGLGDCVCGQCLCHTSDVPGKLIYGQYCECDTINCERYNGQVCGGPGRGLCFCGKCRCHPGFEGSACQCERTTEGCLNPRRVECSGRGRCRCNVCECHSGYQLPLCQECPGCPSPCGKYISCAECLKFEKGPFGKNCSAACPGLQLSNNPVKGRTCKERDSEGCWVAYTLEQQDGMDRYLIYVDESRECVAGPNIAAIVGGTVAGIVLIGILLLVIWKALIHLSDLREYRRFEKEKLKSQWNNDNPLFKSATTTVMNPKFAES

IC50 [1]: 70 nM
SMILES: C[C@@H]1CCN([C@H](Cc2cccc3ccccc23)C(N)=O)C(=O)[C@H](c2ccccc2)N1C(=O)Cc1ccc2ncccc2c1 [Example 3, (R)-2-[(3S,5R)-5-Methyl-2-oxo-3-phenyl-4-(quinolin-6-yl-acetyl)-[1,4]diazepan-1-yl)-3-(naphthalen-1-yl)-propionamide]
inhibiting effect ([2]; administered p.o. at a dose of 2 x 3 mg/kg): 40%
inhibiting effect ([2]; applied topically at a dose of 10 mM): 50%
